Source: ChEMBL document CHEMBL6153147 (J Med Chem, 2025)

Experiments:
[1] = Metabolic stability in human liver microsomes assessed as intrinsic clearance in microsome measured per mg protein preincubated for 5 mins followed by NADPH addition by LC-MS/MS analysis; assay type: ADME; settings: read-out: CLH
[2] = Clearance in C57BL/6 mouse at 1 mg/kg, iv measured for 0.5 to […] htr by LC-MS/MS analysis; assay type: ADME, organism-based; settings: in vivo, time 0.5-12 hrs
[3] = C0 in C57BL/6 mouse at 1 mg/kg, iv measured for 0.5 to 12 htr by LC-MS/MS analysis; assay type: ADME, organism-based; settings: in vivo, time 0.5-12 hrs
[4] = Metabolic stability in human liver microsomes assessed as half life preincubated for 5 mins followed by NADPH addition by LC-MS/MS analysis; assay type: ADME, Microsome
[5] = Metabolic stability in human liver microsomes assessed as intrinsic clearance preincubated for 5 mins followed by NADPH addition by LC-MS/MS analysis; assay type: ADME, Microsome; settings: read-out: CLH
[6] = Metabolic stability in dog liver microsomes assessed as intrinsic clearance in microsome measured per mg protein preincubated for 5 mins followed by NADPH addition by LC-MS/MS analysis; assay type: ADME, Canis lupus familiaris; settings: read-out: CLH
[7] = AUC (0 to infinity) in C57BL/6 mouse at 1 mg/kg, iv measured for 0.5 to 12 htr by LC-MS/MS analysis; assay type: ADME, organism-based; settings: in vivo, time 0.5-12 hrs
[8] = Metabolic stability in dog liver microsomes assessed as intrinsic clearance preincubated for 5 mins followed by NADPH addition by LC-MS/MS analysis; assay type: ADME, Canis lupus familiaris, Microsome; settings: read-out: CLH
[9] = Tmax in C57BL/6 mouse at 1 mg/kg, iv measured for 0.5 to 12 htr by LC-MS/MS analysis; assay type: ADME, organism-based; settings: in vivo, time 0.5-12 hrs
[10] = AUC (0 to infinity) in C57BL/6 mouse at 10 mg/kg, po measured for 0.5 to 12 htr by LC-MS/MS analysis; assay type: ADME, organism-based; settings: in vivo, time 0.5-12 hrs
[11] = Metabolic stability in dog liver microsomes assessed as half life preincubated for 5 mins followed by NADPH addition by LC-MS/MS analysis; assay type: ADME, Canis lupus familiaris, Microsome
[12] = Volume of distribution at steady state in C57BL/6 mouse at 1 mg/kg, iv measured for 0.5 to 12 htr by LC-MS/MS analysis; assay type: ADME, organism-based; settings: in vivo, time 0.5-12 hrs, read-out: Vdss
[13] = Cmax in C57BL/6 mouse at 1 mg/kg, iv measured for 0.5 to […] htr by LC-MS/MS analysis; assay type: ADME, organism-based; settings: in vivo, time 0.5-12 hrs
[14] = Oral bioavailability in C57BL/6 mouse at 10 mg/kg measured for 0.5 to […] htr by LC-MS/MS analysis; assay type: ADME, organism-based; settings: in vivo, time 0.5-12 hrs
[15] = AUC (0 to t) in C57BL/6 mouse at 10 mg/kg, po measured for 0.5 to […] htr by LC-MS/MS analysis; assay type: ADME, organism-based; settings: in vivo, time 0.5-12 hrs
[16] = MRT (0 to t) in C57BL/6 mouse at 1 mg/kg, iv measured for 0.5 to 12 htr by LC-MS/MS analysis; assay type: ADME, organism-based; settings: in vivo, time 0.5-12 hrs
[17] = MRT (0 to t) in C57BL/6 mouse at 10 mg/kg, po measured for 0.5 to 12 htr by LC-MS/MS analysis; assay type: ADME, organism-based; settings: in vivo, time 0.5-12 hrs
[18] = Metabolic stability in mouse liver microsomes assessed as intrinsic clearance preincubated for 5 mins followed by NADPH addition by LC-MS/MS analysis; assay type: ADME, Microsome; settings: read-out: CLH
[19] = AUC (0 to t) in C57BL/6 mouse at 1 mg/kg, iv measured for 0.5 to […] htr by LC-MS/MS analysis; assay type: ADME, organism-based; settings: in vivo, time 0.5-12 hrs
[20] = Metabolic stability in mouse liver microsomes assessed as intrinsic clearance in microsome measured per mg protein preincubated for 5 mins followed by NADPH addition by LC-MS/MS analysis; assay type: ADME; settings: read-out: CLH
[21] = Metabolic stability in mouse liver microsomes assessed as half life preincubated for 5 mins followed by NADPH addition by LC-MS/MS analysis; assay type: ADME, Microsome
[22] = Half life in C57BL/6 mouse at 1 mg/kg, iv measured for 0.5 to 12 htr by LC-MS/MS analysis; assay type: ADME, organism-based; settings: in vivo, time 0.5-12 hrs
[23] = Cmax in C57BL/6 mouse at 10 mg/kg, po measured for 0.5 to […] htr by LC-MS/MS analysis; assay type: ADME, organism-based; settings: in vivo, time 0.5-12 hrs
[24] = Tmax in C57BL/6 mouse at 10 mg/kg, po measured for 0.5 to 12 htr by LC-MS/MS analysis; assay type: ADME, organism-based; settings: in vivo, time 0.5-12 hrs
[25] = Half life in C57BL/6 mouse at 10 mg/kg, po measured for 0.5 to 12 htr by LC-MS/MS analysis; assay type: ADME, organism-based; settings: in vivo, time 0.5-12 hrs
[26] = Selectivity ratio of IC50 for inhibition of human PLK2 using ATF2 as substrate to IC50 for inhibition of human PLK1 using ATF2 as substrate
[27] = Selectivity ratio of IC50 for inhibition of human PLK3 using ATF2 as substrate to IC50 for inhibition of human PLK1 using ATF2 as substrate
A549 = experiment: cells; settings: Homo sapiens
CCRF-CEM = experiment: cells; settings: Homo sapiens
K562 = experiment: cells; settings: Homo sapiens
[28] = Effect on F-actin cytoskeleton in HEK293T cells at 10 uM incubated for 24 hrs by immunofluorescence based analysis; assay type: toxicity, cell-based; settings: human, hek-293t
NCI-H460 = experiment: cells; settings: Homo sapiens
KG-1 = experiment: cells; settings: Homo sapiens
[29] = target: Serine/threonine-protein kinase PLK3 (Homo sapiens, UniProt Q9H4B4); experiment: Inhibition of human PLK3 using ATF2 as substrate incubated for 40 mins in presence of [gamma-33P]ATP/Mg acetate by scintillation counting analysis
[30] = Effect on mitochondrial membrane integrity in HEK293T cells at 10 uM incubated for 24 hrs by JC-1 dye based analysis; assay type: toxicity, cell-based; settings: human, hek-293t
[31] = target: Voltage-gated inwardly rectifying potassium channel KCNH2 (Homo sapiens, UniProt Q12809); experiment: Inhibition of hERG transfected in CHO cells; assay type: toxicity, cell-based
[32] = Cytotoxicity against HEK293T cells assessed as inhibition of cell viability by CCK8 assay; assay type: toxicity, cell-based, HEK-293T; settings: human
PC-9 = experiment: cells; settings: Homo sapiens
HEK-293T [33] = experiment: Cytotoxicity against HEK293T cells by CCK8 assay; assay type: toxicity, cell-based; settings: human, dose 0.1-30 µM
[34] = target: Serine/threonine-protein kinase PLK1 (Homo sapiens, UniProt P53350); experiment: Inhibition of human PLK1 using ATF2 as substrate incubated for 40 mins in presence of [gamma-33P]ATP/Mg acetate by scintillation counting analysis
[35] = Cytotoxicity against HEK293T cells assessed as cell viability at 30 uM by CCK8 assay relative to control; assay type: toxicity, cell-based, HEK-293T; settings: human, read-out: Activity
HL-60 = experiment: cells; settings: Homo sapiens
HEK-293T [36] = experiment: Effect on mitochondrial membrane potential in HEK293T cells at 10 uM incubated for 24 hrs by MitoTracker Red probe based analysis; assay type: toxicity, cell-based; settings: human
[37] = Solubility of compound in 0.01 M PBS at pH 7.4 assessed as fold increase equilibrated for 12 hrs by UV spectrophotometry relative to BI 2536; assay type: physicochemical; settings: buffer, pH 7.4, 12 h
SW-620 = experiment: cells; settings: Homo sapiens
[38] = target: Serine/threonine-protein kinase PLK2 (Homo sapiens, UniProt Q9NYY3); experiment: Inhibition of human PLK2 using ATF2 as substrate incubated for 40 mins in presence of [gamma-33P]ATP/Mg acetate by scintillation counting analysis
Chain of Serine/threonine-protein kinase PLK2 (Q9NYY3 whole entry): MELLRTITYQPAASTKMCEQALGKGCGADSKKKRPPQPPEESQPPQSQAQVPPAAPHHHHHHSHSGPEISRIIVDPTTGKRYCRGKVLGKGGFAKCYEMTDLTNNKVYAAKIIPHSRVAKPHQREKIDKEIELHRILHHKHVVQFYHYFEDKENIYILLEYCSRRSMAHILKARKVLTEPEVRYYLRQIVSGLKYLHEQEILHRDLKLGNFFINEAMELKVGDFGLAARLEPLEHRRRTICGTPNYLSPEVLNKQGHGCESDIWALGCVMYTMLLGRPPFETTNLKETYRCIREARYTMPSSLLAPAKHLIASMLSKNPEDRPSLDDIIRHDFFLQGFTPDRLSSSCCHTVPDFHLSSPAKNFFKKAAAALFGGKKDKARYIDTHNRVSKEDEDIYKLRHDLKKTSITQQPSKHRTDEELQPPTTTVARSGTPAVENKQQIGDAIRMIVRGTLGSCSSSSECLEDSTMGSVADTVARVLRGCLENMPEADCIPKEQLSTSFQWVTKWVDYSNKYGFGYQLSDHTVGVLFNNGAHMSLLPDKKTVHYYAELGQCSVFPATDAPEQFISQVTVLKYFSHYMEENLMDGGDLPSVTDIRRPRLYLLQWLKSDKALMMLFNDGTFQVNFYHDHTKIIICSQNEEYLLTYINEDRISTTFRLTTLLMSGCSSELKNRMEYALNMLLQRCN

Chain of Serine/threonine-protein kinase PLK1 (P53350 whole entry): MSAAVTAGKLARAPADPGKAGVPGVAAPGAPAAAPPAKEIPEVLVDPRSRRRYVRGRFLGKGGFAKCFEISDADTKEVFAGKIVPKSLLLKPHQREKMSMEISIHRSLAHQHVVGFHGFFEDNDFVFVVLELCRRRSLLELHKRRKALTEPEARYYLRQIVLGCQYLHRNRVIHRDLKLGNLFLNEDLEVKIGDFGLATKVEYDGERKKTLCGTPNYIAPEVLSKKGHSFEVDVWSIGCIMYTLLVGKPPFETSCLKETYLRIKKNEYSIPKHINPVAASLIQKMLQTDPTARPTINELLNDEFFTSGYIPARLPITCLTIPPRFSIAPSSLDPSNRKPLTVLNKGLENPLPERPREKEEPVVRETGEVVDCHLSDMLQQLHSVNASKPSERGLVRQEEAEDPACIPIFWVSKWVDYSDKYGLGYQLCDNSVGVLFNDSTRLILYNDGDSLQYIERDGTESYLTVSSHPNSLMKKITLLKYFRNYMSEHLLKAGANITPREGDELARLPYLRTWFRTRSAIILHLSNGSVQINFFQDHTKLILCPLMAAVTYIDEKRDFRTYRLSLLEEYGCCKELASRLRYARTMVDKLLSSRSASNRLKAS
Chain of Serine/threonine-protein kinase PLK3 (Q9H4B4 whole entry): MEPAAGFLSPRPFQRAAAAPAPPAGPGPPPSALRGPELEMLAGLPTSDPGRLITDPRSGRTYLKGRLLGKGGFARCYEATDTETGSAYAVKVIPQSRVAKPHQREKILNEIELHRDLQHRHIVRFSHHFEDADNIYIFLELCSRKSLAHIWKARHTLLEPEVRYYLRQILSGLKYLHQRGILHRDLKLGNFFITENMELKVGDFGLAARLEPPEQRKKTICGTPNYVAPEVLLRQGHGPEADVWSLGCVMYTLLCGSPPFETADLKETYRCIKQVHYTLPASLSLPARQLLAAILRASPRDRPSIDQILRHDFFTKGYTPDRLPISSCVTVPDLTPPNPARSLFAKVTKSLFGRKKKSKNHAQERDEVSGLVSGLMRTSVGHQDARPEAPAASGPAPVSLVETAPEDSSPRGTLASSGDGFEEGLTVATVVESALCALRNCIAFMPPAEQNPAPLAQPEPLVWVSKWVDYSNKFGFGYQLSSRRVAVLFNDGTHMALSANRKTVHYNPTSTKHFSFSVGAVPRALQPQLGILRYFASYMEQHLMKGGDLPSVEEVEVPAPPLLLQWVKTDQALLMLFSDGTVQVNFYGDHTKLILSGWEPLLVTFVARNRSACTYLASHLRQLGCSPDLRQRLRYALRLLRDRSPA
Chain of Voltage-gated inwardly rectifying potassium channel KCNH2 (Q12809 whole entry): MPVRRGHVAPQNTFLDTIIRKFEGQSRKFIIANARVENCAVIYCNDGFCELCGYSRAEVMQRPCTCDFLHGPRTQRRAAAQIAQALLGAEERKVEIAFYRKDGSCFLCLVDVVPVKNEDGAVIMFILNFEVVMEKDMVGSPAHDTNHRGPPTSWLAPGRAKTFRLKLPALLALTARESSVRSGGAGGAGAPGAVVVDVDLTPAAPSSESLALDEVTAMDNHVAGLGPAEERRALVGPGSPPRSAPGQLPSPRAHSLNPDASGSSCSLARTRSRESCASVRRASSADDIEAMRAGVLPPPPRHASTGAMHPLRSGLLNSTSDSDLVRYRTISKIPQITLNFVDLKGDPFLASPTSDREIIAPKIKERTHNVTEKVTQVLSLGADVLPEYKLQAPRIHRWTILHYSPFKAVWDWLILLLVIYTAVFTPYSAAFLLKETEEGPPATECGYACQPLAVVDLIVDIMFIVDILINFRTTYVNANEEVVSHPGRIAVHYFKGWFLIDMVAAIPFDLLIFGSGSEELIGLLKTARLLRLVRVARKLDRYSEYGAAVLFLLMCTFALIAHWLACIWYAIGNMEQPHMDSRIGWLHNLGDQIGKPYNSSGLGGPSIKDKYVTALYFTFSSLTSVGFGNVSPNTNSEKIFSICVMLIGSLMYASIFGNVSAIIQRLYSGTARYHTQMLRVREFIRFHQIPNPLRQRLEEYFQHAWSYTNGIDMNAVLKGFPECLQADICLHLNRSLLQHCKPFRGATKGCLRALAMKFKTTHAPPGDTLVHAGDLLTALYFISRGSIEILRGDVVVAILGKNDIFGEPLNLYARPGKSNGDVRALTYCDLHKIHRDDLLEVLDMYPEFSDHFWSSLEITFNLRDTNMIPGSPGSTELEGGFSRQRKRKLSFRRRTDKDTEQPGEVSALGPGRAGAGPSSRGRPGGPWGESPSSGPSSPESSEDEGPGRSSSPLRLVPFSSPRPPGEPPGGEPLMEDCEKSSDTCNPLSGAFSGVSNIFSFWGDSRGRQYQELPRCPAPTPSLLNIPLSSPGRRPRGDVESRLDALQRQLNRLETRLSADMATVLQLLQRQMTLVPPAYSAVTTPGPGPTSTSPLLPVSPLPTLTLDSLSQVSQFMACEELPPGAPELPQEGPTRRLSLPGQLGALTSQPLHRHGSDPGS

clearance [2] [mL/min/kg] | C0 [3] [ng/mL] | AUC(0-inf) [7] [ng·h/mL] | Tmax [9] [min] | AUC(0-inf) [10] [ng·h/mL] | Vd [12] [L/kg] | Cmax [13] [ng/mL] | bioavailability [14] [%] | AUC(0-t) [15] [ng·h/mL] | MRT last [16] [min] | MRT last [17] [min] | AUC(0-t) [19] [ng·h/mL] | half-life [22] [min] | Cmax [23] [ng/mL] | Tmax [24] [min] | half-life [25] [min] | IC50 (A549) [nM] | IC50 (CCRF-CEM) [nM] | SMILES | ratio [26] | ratio [27] | also measured
143 | 227 | 117 | 4.98 | 96 | 6 | 175 | 8.2 | 89 | 42 | 126 | 116 | 41.4 | 40 | 25.2 | 84 | – | – | CC[C@@H]1C(=O)N(C)c2cnc(Nc3ccc(C(=O)NC4CCN(C)CC4)cc3OC)nc2N1C1CCCC1 [BI-2536] | – | – | microsomal CLint [1]: 24.1 µL/min/mg; half-life [4]: 57.4 min; CLint scaled [5]: 30.3 mL/min/kg; microsomal CLint [6]: 50.6 µL/min/mg; CLint scaled [8]: 126 mL/min/kg; half-life [11]: 27.4 min; CLint scaled [18]: 136 mL/min/kg; microsomal CLint [20]: 34.5 µL/min/mg; half-life [21]: 40.2 min
73 | 753 | 228 | 4.98 | 452 | 2.5 | 471 | 20 | 449 | 34.8 | 108 | 226 | 40.8 | 201 | 25.2 | 66 | 154 | 40 | CC[C@@H]1C(=O)N(C)c2cnc(Nc3cc(N4CCN(C)CC4)ccc3OCCCO)nc2N1C1CCCC1 | 247 | 161 | IC50 (K562): 0.67 nM; Activity [28]: Non-toxic; IC50 (NCI-H460): 32 nM; IC50 (KG-1): > 10000 nM; IC50 [29]: 3230 nM; Activity [30]: Non-toxic; IC50 [31]: 13300 nM; IC50 [32]: 38200 nM; IC50 (PC-9): 164 nM; Activity (HEK-293T [33]): Dose-dependent-effect; IC50 [34]: 20 nM; viability at 30 µM [35]: 16.5%; IC50 (HL-60): 53 nM; Activity (HEK-293T [36]): Non-toxic; fold change (FC) [37]: > 2; IC50 (SW-620): 217 nM; IC50 [38]: 4940 nM
– | – | – | – | – | – | – | – | – | – | – | – | – | – | – | – | 103 | 90 | CC[C@@H]1C(=O)N(C)c2cnc(Nc3cc(N4CCN(C)CC4)cc(F)c3OCCCO)nc2N1C1CCCC1 | 700 | 178 | IC50 (K562): 1780 nM; IC50 (NCI-H460): 27 nM; IC50 (KG-1): 4810 nM; IC50 [29]: 2000 nM; IC50 (PC-9): 65 nM; IC50 [34]: 11 nM; IC50 (HL-60): 31 nM; IC50 (SW-620): 18 nM; IC50 [38]: 7900 nM
